In PubChem BioAssay (NCI):
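Each compound was tested at five concentrations against cells in 96-well plates for 48 hours. The concentration for full growth arrest is given as TGI.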

How the values were obtained:
Test in all cases: NCI-60 cell line screen, 48 h
MCF7 breast = system: MCF7 breast
SK-MEL-5 melanoma = system: SK-MEL-5 melanoma
UACC-62 melanoma = system: UACC-62 melanoma
SW-620 colon = system: SW-620 colon
MDA-N = system: MDA-N
SK-OV-3 ovarian = system: SK-OV-3 ovarian
CAKI-1 renal = system: CAKI-1 renal
MOLT-4 leukemia = system: MOLT-4 leukemia
IGROV1 ovarian = system: IGROV1 ovarian
SF-268 CNS = system: SF-268 CNS
SR leukemia = system: SR leukemia
OVCAR-4 ovarian = system: OVCAR-4 ovarian
DU-145 prostate = system: DU-145 prostate
CCRF-CEM leukemia = system: CCRF-CEM leukemia
NCI/ADR-RES ovarian = system: NCI/ADR-RES ovarian
K-562 leukemia = system: K-562 leukemia
HT29 colon = system: HT29 colon
HOP-92 NSCLC = system: HOP-92 NSCLC
EKVX NSCLC = system: EKVX NSCLC
M14 melanoma = system: M14 melanoma
UO-31 renal = system: UO-31 renal
TK-10 renal = system: TK-10 renal
ACHN renal = system: ACHN renal
SF-295 CNS = system: SF-295 CNS
SK-MEL-2 melanoma = system: SK-MEL-2 melanoma
OVCAR-8 ovarian = system: OVCAR-8 ovarian
MDA-MB-435 = system: MDA-MB-435
SN12C renal = system: SN12C renal
SK-MEL-28 melanoma = system: SK-MEL-28 melanoma
HOP-62 NSCLC = system: HOP-62 NSCLC
MDA-MB-231 breast = system: MDA-MB-231 breast
SNB-75 CNS = system: SNB-75 CNS
HCT-116 colon = system: HCT-116 colon
NCI-H460 lung = system: NCI-H460 lung
A498 renal = system: A498 renal
HCC-2998 colon = system: HCC-2998 colon
BT-549 breast = system: BT-549 breast
RPMI-8226 leukemia = system: RPMI-8226 leukemia
T-47D breast = system: T-47D breast
A549 NSCLC = system: A549 NSCLC
PC-3 prostate = system: PC-3 prostate
SNB-19 CNS = system: SNB-19 CNS
786-0 renal = system: 786-0 renal
KM12 colon = system: KM12 colon
HL-60(TB) leukemia = system: HL-60(TB) leukemia
UACC-257 melanoma = system: UACC-257 melanoma
U251 CNS = system: U251 CNS
COLO 205 colon = system: COLO 205 colon
OVCAR-5 ovarian = system: OVCAR-5 ovarian
OVCAR-3 ovarian = system: OVCAR-3 ovarian
HCT-15 colon = system: HCT-15 colon
HS 578T breast = system: HS 578T breast
LOX IMVI melanoma = system: LOX IMVI melanoma
SF-539 CNS = system: SF-539 CNS
RXF 393 renal = system: RXF 393 renal
NCI-H226 lung = system: NCI-H226 lung
MALME-3M melanoma = system: MALME-3M melanoma
NCI-H23 lung = system: NCI-H23 lung

O=C(c1ccccc1)c1ccc(N2C(=O)/C(=C/Cc3ccco3)N=C2c2ccccc2)c(N2C(=O)/C(=C/Cc3ccco3)N=C2c2ccccc2)c1
TGI (MCF7 breast): > 100 µM
TGI (SK-MEL-5 melanoma): 88.5 µM
TGI (UACC-62 melanoma): > 100 µM
TGI (SW-620 colon): > 100 µM
TGI (MDA-N): > 100 µM
TGI (SK-OV-3 ovarian): 83 µM
TGI (CAKI-1 renal): > 100 µM
TGI (MOLT-4 leukemia): 56.6 µM
TGI (IGROV1 ovarian): > 100 µM
TGI (SF-268 CNS): > 100 µM
TGI (SR leukemia): > 100 µM
TGI (OVCAR-4 ovarian): > 100 µM
TGI (DU-145 prostate): 96.6 µM
TGI (CCRF-CEM leukemia): 53.5 µM
TGI (NCI/ADR-RES ovarian): > 100 µM
TGI (K-562 leukemia): > 100 µM
TGI (HT29 colon): > 100 µM
TGI (HOP-92 NSCLC): > 100 µM
TGI (EKVX NSCLC): > 100 µM
TGI (M14 melanoma): > 100 µM
TGI (UO-31 renal): > 100 µM
TGI (TK-10 renal): > 100 µM
TGI (ACHN renal): > 100 µM
TGI (SF-295 CNS): > 100 µM
TGI (SK-MEL-2 melanoma): 58.6 µM
TGI (OVCAR-8 ovarian): > 100 µM
TGI (MDA-MB-435): 94.9 µM
TGI (SN12C renal): > 100 µM
TGI (SK-MEL-28 melanoma): > 100 µM
TGI (HOP-62 NSCLC): > 100 µM
TGI (MDA-MB-231 breast): > 100 µM
TGI (SNB-75 CNS): 66.9 µM
TGI (HCT-116 colon): > 100 µM
TGI (NCI-H460 lung): > 100 µM
TGI (A498 renal): > 100 µM
TGI (HCC-2998 colon): > 100 µM
TGI (BT-549 breast): > 100 µM
TGI (RPMI-8226 leukemia): 91.3 µM
TGI (T-47D breast): > 100 µM
TGI (A549 NSCLC): > 100 µM
TGI (PC-3 prostate): > 100 µM
TGI (SNB-19 CNS): > 100 µM
TGI (786-0 renal): > 100 µM
TGI (KM12 colon): > 100 µM
TGI (HL-60(TB) leukemia): 45.7 µM
TGI (UACC-257 melanoma): > 100 µM
TGI (U251 CNS): 43.8 µM
TGI (COLO 205 colon): > 100 µM
TGI (OVCAR-5 ovarian): > 100 µM
TGI (OVCAR-3 ovarian): 46.7 µM
TGI (HCT-15 colon): > 100 µM
TGI (HS 578T breast): 64.9 µM
TGI (LOX IMVI melanoma): 58.3 µM
TGI (SF-539 CNS): 32.7 µM

Oc1ccc2c(c1)CCc1c-2n(CCN2CCOCC2)c2ccc(O)cc12
TGI (RXF 393 renal): > 100 µM
TGI (MCF7 breast): > 100 µM
TGI (SK-MEL-5 melanoma): 39 µM
TGI (UACC-62 melanoma): 55.5 µM
TGI (SW-620 colon): > 100 µM
TGI (MDA-N): > 100 µM
TGI (SK-OV-3 ovarian): > 100 µM
TGI (CAKI-1 renal): > 100 µM
TGI (MOLT-4 leukemia): > 100 µM
TGI (IGROV1 ovarian): 60.9 µM
TGI (SF-268 CNS): > 100 µM
TGI (SR leukemia): > 100 µM
TGI (DU-145 prostate): > 100 µM
TGI (CCRF-CEM leukemia): > 100 µM
TGI (NCI/ADR-RES ovarian): 48.3 µM
TGI (K-562 leukemia): > 100 µM
TGI (NCI-H226 lung): > 100 µM
TGI (EKVX NSCLC): > 100 µM
TGI (M14 melanoma): > 100 µM
TGI (UO-31 renal): 34.9 µM
TGI (TK-10 renal): > 100 µM
TGI (ACHN renal): 53 µM
TGI (SF-295 CNS): > 100 µM
TGI (SK-MEL-2 melanoma): 70.9 µM
TGI (OVCAR-8 ovarian): 57.1 µM
TGI (MDA-MB-435): > 100 µM
TGI (SN12C renal): > 100 µM
TGI (SK-MEL-28 melanoma): > 100 µM
TGI (MALME-3M melanoma): 75.6 µM
TGI (NCI-H23 lung): 90.3 µM
TGI (HOP-62 NSCLC): > 100 µM
TGI (MDA-MB-231 breast): > 100 µM
TGI (SNB-75 CNS): 78.1 µM
TGI (HCT-116 colon): > 100 µM
TGI (NCI-H460 lung): > 100 µM
TGI (A498 renal): 39.6 µM
TGI (BT-549 breast): > 100 µM
TGI (RPMI-8226 leukemia): > 100 µM
TGI (T-47D breast): > 100 µM
TGI (PC-3 prostate): > 100 µM
TGI (SNB-19 CNS): > 100 µM
TGI (786-0 renal): > 100 µM
TGI (KM12 colon): 52.9 µM
TGI (HL-60(TB) leukemia): > 100 µM
TGI (UACC-257 melanoma): > 100 µM
TGI (U251 CNS): > 100 µM
TGI (COLO 205 colon): > 100 µM
TGI (OVCAR-5 ovarian): > 100 µM
TGI (OVCAR-3 ovarian): > 100 µM
TGI (HCT-15 colon): > 100 µM
TGI (HS 578T breast): > 100 µM
TGI (LOX IMVI melanoma): > 100 µM
TGI (SF-539 CNS): > 100 µM
